Source: patent US20260272902A1, “C[…] ACID SALT FORM OF A CCR6 ANTAGONIST” (Idorsia Pharmaceuticals Ltd, priority 2022, published 2026)

Assay: Gravimetric vapor sorption (GVS) analysis / hygroscopicity
Type: physicochemical
Conditions: GVS at 25° C., FIG. 4
Method: Gravimetric vapor sorption analysis was performed with SPS 100n (ProUmid GmbH & Co. KG). An appropriate amount of the sample was placed into a tared aluminum pan without any pre-treatment. The analysis was run at a temperature of 25° C. with the following humidity program: 40%-0%-95%-40% in steps of 5% with maximum equilibration time of 24 h at each step. Analyzing software was ProUmid Excel template #SPS_4_3_23_E2010_drycorr.xltm.

2-(3-{5-[(R)-(1,3-dimethyl-azetidin-3-yl)-hydroxy-(4-isopropyl-phenyl)-methyl]-pyridin-3-yl}-[1,2,4]oxadiazol-5-yl)-propan-2-ol adipic acid salt
Hygroscopicity classification acc. to Eur. Phar.: is classified as non-hygroscopic acc. to Eur. Phar. | Hygroscopicity: water uptake (between 40% and 80% RH): Less than 0.1% water uptake between 40% and 80% RH. Sample
